For the test, the system named is KB. Put plainly: Cytotoxicity against human KB cells. The class given is functional, cell-based.

Converted amounts (≈) assume the structure as drawn.

`CN1CCc2c3n(c4cc(Br)ccc24)[C@H](O)CCC[C@@H]31` [ARBORESCIDINE D] displayed an IC50 of 3 µg/mL (≈ 8.95 µM).
